Source: paper PMC5447332 (Targeted Oncology, 2017)
Where “and” joins values, the source holds several entries; their conditions need not be identical. Identical values can stand only once. Entries after “also recorded” stand apart in the source; their conditions may differ. Like-named read-outs stand apart in the source and are kept apart here.

Tests used:
[1] = BEZ235 200 mg twice daily; cited from earlier work
[2] = Pharmacokinetics of BEZ235 in plasma, phase Ib combination with everolimus; assay type: in vivo, human (patients with advanced solid tumors); conditions: for Apparent clearance, CL/F / Cmax / Dose / half-life / AUC(0-t) / AUC(0-inf) / Cmax / Tmax: plasma; for half-life / AUC(0-t) / AUC(0-inf) / Cmax / Tmax: human
[3] = preclinical studies; ref not given; cited from earlier work
[4] = whole blood; ref not given; cited from earlier work
[5] = Pharmacokinetics of everolimus in whole blood when co-administered with BEZ235; assay type: in vivo, human (patients with advanced solid tumors)
[6] = cited from earlier work
[7] = BEZ235 200 mg/d + everolimus 2.5 mg/d oral, day 1, mean ± SE
[8] = BEZ235 200 mg/d + everolimus 2.5 mg/d oral, day 28, mean ± SE
[9] = BEZ235 400 mg/d + everolimus 2.5 mg/d oral, day 1, mean ± SE
[10] = BEZ235 400 mg/d + everolimus 2.5 mg/d oral, day 28, mean ± SE
[11] = BEZ235 800 mg/d + everolimus 2.5 mg/d oral, day 1, mean ± SE
[12] = BEZ235 800 mg/d + everolimus 2.5 mg/d oral, day 28, mean ± SE
[13] = po, BEZ235 200 mg/d + everolimus 2.5 mg/d oral, day 1, mean ± SE
[14] = po, BEZ235 200 mg/d + everolimus 2.5 mg/d oral, day 28, mean ± SE
[15] = po, BEZ235 400 mg/d + everolimus 2.5 mg/d oral, day 1, mean ± SE
[16] = po, BEZ235 400 mg/d + everolimus 2.5 mg/d oral, day 28, mean ± SE
[17] = po, BEZ235 800 mg/d + everolimus 2.5 mg/d oral, day 1, mean ± SE
[18] = po, BEZ235 800 mg/d + everolimus 2.5 mg/d oral, day 28, mean ± SE
[19] = everolimus 2.5 mg/d oral + BEZ235 200-800 mg/d, day 1, whole blood, mean ± SE

SMILES: Cn1c(=O)n(-c2ccc(C(C)(C)C#N)cc2)c2c3cc(-c4cnc5ccccc5c4)ccc3ncc21 [BEZ235, dactolisib]
- AUC0-24 [1]: 752.9 ng·h/mL
- Apparent clearance, CL/F [2, 7]: 629.6 ± 278.1 L/h
- Cmax / Dose [2, 7]: 0.2 ng/mL/mg and 0.2 ± 0.1 ng/mL/mg
- Apparent clearance, CL/F [2, 8]: 116.3 ± 24.4 L/h
- Cmax / Dose [2, 8]: 1.1 ± 0.6 ng/mL/mg
- Apparent clearance, CL/F [2, 9]: 644.3 ± 192.9 L/h
- Cmax / Dose [2, 9]: 0.3 ng/mL/mg and 0.3 ± 0.1 ng/mL/mg
- Apparent clearance, CL/F [2, 10]: 309.3 ± 241.3 L/h
- Cmax / Dose [2, 10]: 0.6 ± 0.5 ng/mL/mg
- Apparent clearance, CL/F [2, 11]: 773.9 ± 262.1 L/h
- Cmax / Dose [2, 11]: 0.3 ng/mL/mg and 0.3 ± 0.1 ng/mL/mg
- Apparent clearance, CL/F [2, 12]: 355.9 ± 246.6 L/h
- Cmax / Dose [2, 12]: 1.1 ± 0.7 ng/mL/mg
- Drug levels at steady state relative to single dose administration ([2]; BEZ235 200-800 mg): ~3 fold
- half-life ([2]; oral, Steady-state half-life, range over 200-800 mg/day): 15 to 43 h
- AUC(0-t) ([2]; po, AUC 0-24, BEZ235 200 mg/d + everolimus 2.5 mg/d oral, day 1, mean ± SE): 433 ± 96 ng·h/mL
- AUC(0-t) ([2]; po, AUC 0-24, BEZ235 200 mg/d + everolimus 2.5 mg/d oral, day 28, mean ± SE): 1470 ± 515 ng·h/mL
- AUC(0-t) ([2]; po, AUC 0-24, BEZ235 400 mg/d + everolimus 2.5 mg/d oral, day 1, mean ± SE): 741 ± 171 ng·h/mL
- AUC(0-t) ([2]; po, AUC 0-24, BEZ235 400 mg/d + everolimus 2.5 mg/d oral, day 28, mean ± SE): 1460 ± 1250 ng·h/mL
- AUC(0-t) ([2]; po, AUC 0-24, BEZ235 800 mg/d + everolimus 2.5 mg/d oral, day 1, mean ± SE): 2080 ± 666 ng·h/mL
- AUC(0-t) ([2]; po, AUC 0-24, BEZ235 800 mg/d + everolimus 2.5 mg/d oral, day 28, mean ± SE): 7800 ± 5610 ng·h/mL
- AUC(0-inf) [2, 13]: 468 ± 118 ng·h/mL
- AUC(0-inf) [2, 14]: 1490 ± 691 ng·h/mL
- AUC(0-inf) [2, 15]: 831 ± 163 ng·h/mL
- AUC(0-inf) [2, 16]: 2710 ± 2340 ng·h/mL
- AUC(0-inf) [2, 17]: 2170 ± 675 ng·h/mL
- AUC(0-inf) [2, 18]: 8880 ± 6590 ng·h/mL
- Cmax [2, 13]: 45.2 ± 11.4 ng/mL
- Cmax [2, 14]: 214 ± 114 ng/mL
- Cmax [2, 15]: 102 ± 22.4 ng/mL
- Cmax [2, 16]: 227 ± 198 ng/mL
- Cmax [2, 17]: 243 ± 52.7 ng/mL
- Cmax [2, 18]: 880 ± 570 ng/mL
- half-life ([2]; po, Terminal half-life, BEZ235 200 mg/d + everolimus 2.5 mg/d oral, day 1, mean ± SE): 3.2 ± 1 h
- half-life ([2]; po, Terminal half-life, BEZ235 200 mg/d + everolimus 2.5 mg/d oral, day 28 (steady state), mean ± SE): 19.2 ± 2.5 h
- half-life ([2]; po, Terminal half-life, BEZ235 400 mg/d + everolimus 2.5 mg/d oral, day 1, mean ± SE): 8.6 ± 1.5 h
- half-life ([2]; po, Terminal half-life, BEZ235 400 mg/d + everolimus 2.5 mg/d oral, day 28 (steady state), mean ± SE): 43.4 ± 10.8 h
- half-life ([2]; po, Terminal half-life, BEZ235 800 mg/d + everolimus 2.5 mg/d oral, day 1, mean ± SE): 5.9 ± 0.7 h
- half-life ([2]; po, Terminal half-life, BEZ235 800 mg/d + everolimus 2.5 mg/d oral, day 28 (steady state), mean ± SE): 15 ± 6.4 h
- Tmax [2, 13]: 3.8 ± 1.6 h
- Tmax [2, 14]: 2.7 ± 0.7 h
- Tmax [2, 15]: 2.5 ± 0.9 h
- Tmax [2, 16]: 1.5 ± 0.5 h
- Tmax [2, 17]: 2.6 ± 0.8 h
- Tmax [2, 18]: 2 h
- Accumulation higher than anticipated ([2]; multiple dosing, day 28): 2–3 fold
- Oral bioavailability (oral availability) ([2]; patients, SDS sachet, this study): quite low; also recorded: remained low
- Average plasma concentration ([2]; steady state, doses of 200 to 800 mg/day): 61 to 324 ng/mL
- Aqueous solubility [3]: poor

SMILES: CO[C@H]1C[C@@H]2CC[C@@H](C)[C@@](O)(O2)C(=O)C(=O)N2CCCC[C@H]2C(=O)O[C@H]([C@H](C)C[C@@H]2CC[C@@H](OCCO)[C@H](OC)C2)CC(=O)[C@H](C)/C=C(\C)[C@@H](O)[C@@H](OC)C(=O)[C@H](C)C[C@H](C)/C=C/C=C/C=C/1C [Everolimus, everolimus]
- Binding to erythrocytes [4]: 85%
- Increase in dose-normalized AUC0-24 (exposure), combination with BEZ235 compared to everolimus alone ([5]; everolimus 2.5 mg/d + BEZ235 vs reported everolimus alone (ref 23)): 1.7 fold
- Apparent clearance, CL/F [5, 19]: 24.76 ± 2.91 L/h
- Cmax / Dose [5, 19]: 5.63 ± 0.6 ng/mL/mg
- Cmax / Dose ([5]; everolimus 2.5 mg/d oral + BEZ235 200-800 mg/d, day 28, whole blood, mean ± SE): 12.67 ± 2.96 ng/mL/mg
- Reported everolimus clearance ([6]; 5 mg dosed alone): 21.3 L/h
- Reported everolimus clearance ([6]; 10 mg dosed alone): 27.3 L/h
- Median Tmax ([6]; everolimus after oral administration, ref not given): 1 to 2 h
- Dose-normalized Cmax ([6]; everolimus dosed alone, cancer patients): 6.3 ng/mL
- Oral bioavailability ([6]; everolimus, ref not given): low
